According to patent US5952349A, “Muscarinic antagonists for treating memory loss” (Schering Corporation, priority 1997, dated 1999):
Where two headings read alike, the source gives them in different places.

Tests used:
[1] = biological target: T1, cloned human m1 muscarinic receptor (Homo sapiens, UniProt P11229); experiment: Muscarinic binding activity: inhibition of 3H-QNB binding, m1
T1 construct: expressed in transfected cells; host or cells: CHO cells, stably transfected (membranes)
T1 sequence (P11229 1-460): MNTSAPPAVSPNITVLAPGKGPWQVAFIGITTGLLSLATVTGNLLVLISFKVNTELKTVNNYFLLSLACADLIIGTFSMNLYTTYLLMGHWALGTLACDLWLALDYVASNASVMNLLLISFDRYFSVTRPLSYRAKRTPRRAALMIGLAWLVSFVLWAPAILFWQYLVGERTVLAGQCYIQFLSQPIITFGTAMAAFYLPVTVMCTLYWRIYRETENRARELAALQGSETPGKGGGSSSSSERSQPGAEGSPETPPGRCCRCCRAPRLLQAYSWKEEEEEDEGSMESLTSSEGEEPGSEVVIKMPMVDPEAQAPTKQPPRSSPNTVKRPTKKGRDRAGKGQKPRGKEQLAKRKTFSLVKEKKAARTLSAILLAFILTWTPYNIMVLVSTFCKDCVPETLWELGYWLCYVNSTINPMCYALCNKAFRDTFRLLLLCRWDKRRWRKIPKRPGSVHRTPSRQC

[2] = biological target: T2, cloned human m2 muscarinic receptor (Homo sapiens, UniProt P08172); experiment: Muscarinic binding activity: inhibition of 3H-QNB binding, m2 (and m2 selectivity); settings: for m2 Selectivity Ratio (Ki,m1/Ki,m2): Ki for m1 divided by Ki for m2, higher = greater m2 selectivity
T2 construct: expressed in transfected cells; host or cells: CHO cells, stably transfected (membranes)
T2 sequence (P08172 1-466): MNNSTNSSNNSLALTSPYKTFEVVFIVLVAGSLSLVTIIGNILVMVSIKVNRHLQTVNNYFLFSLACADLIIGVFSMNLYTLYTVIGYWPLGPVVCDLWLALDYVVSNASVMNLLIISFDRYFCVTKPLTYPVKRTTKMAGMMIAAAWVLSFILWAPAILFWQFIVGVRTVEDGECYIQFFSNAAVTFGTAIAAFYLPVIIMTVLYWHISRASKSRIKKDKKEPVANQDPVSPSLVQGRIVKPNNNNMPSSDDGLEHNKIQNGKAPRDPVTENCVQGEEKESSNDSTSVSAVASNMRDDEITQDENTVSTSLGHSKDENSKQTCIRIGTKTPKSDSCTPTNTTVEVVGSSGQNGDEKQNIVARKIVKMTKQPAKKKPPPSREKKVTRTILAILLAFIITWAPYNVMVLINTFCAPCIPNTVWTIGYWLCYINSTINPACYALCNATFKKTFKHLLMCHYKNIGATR

[3] = biological target: T3, cloned human m4 muscarinic receptor (Homo sapiens, UniProt P08173); experiment: Muscarinic binding activity: inhibition of 3H-QNB binding, m4 (and m4 selectivity); settings: for m4 Selectivity Ratio (Ki,m4/Ki,m2): Ki for m4 divided by Ki for m2
T3 construct: expressed in transfected cells; host or cells: CHO cells, stably transfected (membranes)
T3 sequence (P08173 1-479): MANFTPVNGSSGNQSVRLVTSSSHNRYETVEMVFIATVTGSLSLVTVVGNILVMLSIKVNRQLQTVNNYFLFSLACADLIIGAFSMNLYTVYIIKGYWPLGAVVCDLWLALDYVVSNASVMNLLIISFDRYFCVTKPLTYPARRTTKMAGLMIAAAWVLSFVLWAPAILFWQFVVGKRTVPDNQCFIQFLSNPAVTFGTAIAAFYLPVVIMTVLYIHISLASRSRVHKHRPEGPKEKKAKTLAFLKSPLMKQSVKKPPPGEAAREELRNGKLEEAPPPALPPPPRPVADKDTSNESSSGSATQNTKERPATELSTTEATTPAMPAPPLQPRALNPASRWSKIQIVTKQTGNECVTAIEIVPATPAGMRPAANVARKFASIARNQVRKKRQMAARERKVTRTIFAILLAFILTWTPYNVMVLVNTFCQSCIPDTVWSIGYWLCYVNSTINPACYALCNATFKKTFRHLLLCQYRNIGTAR

[4] = system: m2 muscarinic; settings: Baumgold et al., Eur. J. of Pharmacol., 251, (1994) 315-317; cited from earlier work
[5] = 3H-QNB binding, membranes of transfected CHO cells, 25° C., 90 minutes, pH 7.4, read-out: Ki, m1
[6] = 3H-QNB binding, membranes of transfected CHO cells, 25° C., 90 minutes, pH 7.4, read-out: Ki, m2
[7] = 3H-QNB binding, membranes of transfected CHO cells, 25° C., 90 minutes, pH 7.4, read-out: Ki, m4

| SMILES | Ki [1] [nM] | Ki [2] [nM] | m2 Selectivity Ratio (Ki,m1/Ki,m2) [2] | Ki [3] [nM] | m4 Selectivity Ratio (Ki,m4/Ki,m2) [3] | Ki [1, 5] [nM] | Ki [2, 6] [nM] | Ki [3, 7] [nM] | m2 muscarinic antagonist selectivity [4] |
| --- | --- | --- | --- | --- | --- | --- | --- | --- | --- |
| COc1ccc(S(=O)(=O)c2ccc(N(C)C3CCN(C4CCCCC4)CC3)cc2)cc1 [Example 2G] | 285 | 15.2 | 18.8 | 50 | 3.3 | – | – | – | – |
| CC(=O)Nc1ccc([S+]([O-])c2ccc(N(C#N)C3CCN(C4CCCCC4)CC3)cc2)cc1 (stereo not shown) [Example 2AM] | – | – | 15.5 | – | 3.0 | 212 | 13.7 | 41.4 | – |
| COc1ccc([S+]([O-])c2ccc(N(C#N)C3CCN(C4CCCCC4)CC3)cc2)cc1 (stereo not shown) [Example 2E] | – | – | 21.0 | – | 4.4 | 189 | 9 | 39.3 | – |
| C=CCN(c1ccc(S(=O)(=O)c2ccc(OC)cc2)cc1)C1CCN(C2CCCCC2)CC1 [Example 2I] | 47.1 | 3.7 | 12.7 | 10.1 | 2.7 | – | – | – | – |
| C[C@H]1CC[C@@H]2N(C1)C[C@H]1[C@@H]3C[C@H]4[C@@H](CC(=O)[C@H]5C[C@@H](Cl)CC[C@@]54C)[C@@H]3CC[C@H]1[C@]2(C)O [3-α-chloroimperialine] | – | – | – | – | – | – | – | – | highly selective m2 muscarinic antagonist |
| N#CN(c1ccc(S(=O)(=O)C2CCCCC2)cc1)C1CCN(C2CCCCC2)CC1 [Example 2AK] | – | – | 17.2 | – | 1.4 | 232 | 18.8 | 25.5 | – |
| N#CN(c1ccc(S(=O)(=O)c2ccc3c(c2)OCO3)cc1)C1CCN(C2CCCCC2)CC1 [Example 2AC] | – | – | 22.7 | – | 3.6 | 10 | 0.44 | 1.6 | – |
